Laboratory results reported in ChEMBL document CHEMBL3351907, “Design, synthesis and biological evaluation of benzyl 2-(1H-imidazole-1-yl) pyrimidine analogues as selective and potent Raf inhibitors” (Bioorg Med Chem Lett, 2014).
pIC50: −log10 of the molar value. Activity calls are given as the source filed them. No cut-off for these calls is given here.

Experiments:
[1] = (§1) Cytotoxicity against human A375P cells assessed as cell viability after 24 hrs by MTT assay; format: functional
[2] = (§2) Cytotoxicity against human U937 cells assessed as cell viability after 24 hrs by MTT assay; format: functional; details: U-937, 24 h
[3] = system: A375P; test: as §1; format: functional
[4] = system: U-937; test: as §2; format: functional
[5] = target: Tyrosine-protein kinase JAK3 (Homo sapiens) (UniProt P52333); test: Inhibition of JAK3 (unknown origin) at 10 uM
[6] = target: Mast/stem cell growth factor receptor Kit (Homo sapiens) (UniProt P10721); test: Inhibition of c-Kit (unknown origin) at 10 uM
[7] = target: Tyrosine-protein kinase Lyn (Homo sapiens) (UniProt P07948); test: Inhibition of LYN (unknown origin) at 10 uM
[8] = target: Insulin-like growth factor 1 receptor (Homo sapiens) (UniProt P08069); test: Inhibition of IGF1R (unknown origin) at 10 uM
[9] = target: Serine/threonine-protein kinase B-raf (Homo sapiens, UniProt P15056, V600E); test: Inhibition of BRAF V599E mutant (unknown origin)
[10] = target: Mitogen-activated protein kinase 3 (Homo sapiens) (UniProt P27361); test: Inhibition of ERK1 (unknown origin) at 10 uM
[11] = species on record: Homo sapiens; test: Inhibition of PKA (unknown origin) at 10 uM
[12] = system: Serine/threonine-protein kinase B-raf (Homo sapiens), P15056 [V600E]; details: 10 uM
Description: Inhibition of BRAF V599E mutant (unknown origin) at 10 uM

[13] = target: Mitogen-activated protein kinase 10 (Homo sapiens) (UniProt P53779); test: Inhibition of JNK3 (unknown origin) at 10 uM
[14] = target: T1, RAF proto-oncogene serine/threonine-protein kinase (Homo sapiens, UniProt P04049); test: Inhibition of RAF1 (unknown origin) at 10 uM
[15] = target: T2, Serine/threonine-protein kinase B-raf (Homo sapiens, UniProt P15056); details: 10 uM
Description: Inhibition of BRAF (unknown origin) at 10 uM

[16] = target: T3, Mitogen-activated protein kinase 14 (Homo sapiens, UniProt Q16539); test: Inhibition of P38a/MAPK14 (unknown origin) at 10 uM
[17] = target: Tyrosine-protein kinase Lck (Homo sapiens) (UniProt P06239); test: Inhibition of LCK (unknown origin) at 10 uM
[18] = target: Dual specificity mitogen-activated protein kinase kinase 1 (Homo sapiens) (UniProt Q02750); test: Inhibition of MEK1 (unknown origin) at 10 uM
[19] = target: Receptor-type tyrosine-protein kinase FLT3 (Homo sapiens) (UniProt P36888); test: Inhibition of FLT3 (unknown origin) at 10 uM
[20] = target: Proto-oncogene tyrosine-protein kinase Src (Homo sapiens) (UniProt P12931); test: Inhibition of c-Src (unknown origin) at 10 uM
[21] = target: T1, RAF proto-oncogene serine/threonine-protein kinase; test: Inhibition of cRAF1 (unknown origin) at 10 uM
[22] = target: Hepatocyte growth factor receptor (Homo sapiens) (UniProt P08581); test: Inhibition of c-MET (unknown origin) at 10 uM
[23] = target: Tyrosine-protein kinase SYK (Homo sapiens) (UniProt P43405); test: Inhibition of SYK (unknown origin) at 10 uM
[24] = target: Focal adhesion kinase 1 (Homo sapiens) (UniProt Q05397); test: Inhibition of FAK/PTK2 (unknown origin) at 10 uM
[25] = target: RAC-alpha serine/threonine-protein kinase (Homo sapiens) (UniProt P31749); test: Inhibition of AKT1 (unknown origin) at 10 uM
[26] = target: Serine/threonine-protein kinase mTOR (Homo sapiens) (UniProt P42345); test: Inhibition of mTOR/FRAP1 (unknown origin) at 10 uM
[27] = target: Aurora kinase A (Homo sapiens) (UniProt O14965); test: Inhibition of Aurora A (unknown origin) at 10 uM
[28] = target: Glycogen synthase kinase-3 beta (Homo sapiens) (UniProt P49841); test: Inhibition of GSK3b (unknown origin) at 10 uM
[29] = target: Macrophage colony-stimulating factor 1 receptor (Homo sapiens) (UniProt P07333); test: Inhibition of FMS (unknown origin) at 10 uM
[30] = target: ALK tyrosine kinase receptor (Homo sapiens) (UniProt Q9UM73); test: Inhibition of ALK (unknown origin) at 10 uM
[31] = target: Cyclin-dependent kinase 1/cyclin B1 (Homo sapiens) (UniProt P06493+P14635); test: Inhibition of CDK1/cyclin B (unknown origin) at 10 uM; format: protein-complex assay
[32] = target: Tyrosine-protein kinase BTK (Homo sapiens) (UniProt Q06187); test: Inhibition of BTK (unknown origin) at 10 uM
[33] = target: Macrophage-stimulating protein receptor (Homo sapiens) (UniProt Q04912); test: Inhibition of RON/MST1R (unknown origin) at 10 uM
[34] = target: Epidermal growth factor receptor (Homo sapiens) (UniProt P00533); test: Inhibition of EGFR (unknown origin) at 10 uM
[35] = target: Proto-oncogene tyrosine-protein kinase ROS (Homo sapiens) (UniProt P08922); test: Inhibition of ROS/ROS1 (unknown origin) at 10 uM
[36] = target: Serine/threonine-protein kinase PLK1 (Homo sapiens) (UniProt P53350); test: Inhibition of PLK1 (unknown origin) at 10 uM
[37] = target: T3, Mitogen-activated protein kinase 14; test: Inhibition of P38a/MAPK14 (unknown origin)
[38] = target: T2, Serine/threonine-protein kinase B-raf; test: Inhibition of BRAF (unknown origin)
[39] = target: Fibroblast growth factor receptor 3 (Homo sapiens) (UniProt P22607); test: Inhibition of FGFR3 (unknown origin) at 10 uM
[40] = target: Tyrosine-protein kinase ABL1 (Homo sapiens) (UniProt P00519); test: Inhibition of ABL1 (unknown origin) at 10 uM

T3 sequence (Q16539 whole entry): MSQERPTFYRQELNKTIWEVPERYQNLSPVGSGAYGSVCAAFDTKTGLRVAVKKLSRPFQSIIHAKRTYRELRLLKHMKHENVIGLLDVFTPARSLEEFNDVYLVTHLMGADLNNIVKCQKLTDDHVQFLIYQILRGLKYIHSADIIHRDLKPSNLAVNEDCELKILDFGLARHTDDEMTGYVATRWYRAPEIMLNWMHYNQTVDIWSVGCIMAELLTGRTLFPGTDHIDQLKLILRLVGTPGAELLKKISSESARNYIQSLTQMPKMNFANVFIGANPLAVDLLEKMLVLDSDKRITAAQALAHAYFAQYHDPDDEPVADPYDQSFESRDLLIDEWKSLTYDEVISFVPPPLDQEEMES
T2 sequence (P15056 whole entry): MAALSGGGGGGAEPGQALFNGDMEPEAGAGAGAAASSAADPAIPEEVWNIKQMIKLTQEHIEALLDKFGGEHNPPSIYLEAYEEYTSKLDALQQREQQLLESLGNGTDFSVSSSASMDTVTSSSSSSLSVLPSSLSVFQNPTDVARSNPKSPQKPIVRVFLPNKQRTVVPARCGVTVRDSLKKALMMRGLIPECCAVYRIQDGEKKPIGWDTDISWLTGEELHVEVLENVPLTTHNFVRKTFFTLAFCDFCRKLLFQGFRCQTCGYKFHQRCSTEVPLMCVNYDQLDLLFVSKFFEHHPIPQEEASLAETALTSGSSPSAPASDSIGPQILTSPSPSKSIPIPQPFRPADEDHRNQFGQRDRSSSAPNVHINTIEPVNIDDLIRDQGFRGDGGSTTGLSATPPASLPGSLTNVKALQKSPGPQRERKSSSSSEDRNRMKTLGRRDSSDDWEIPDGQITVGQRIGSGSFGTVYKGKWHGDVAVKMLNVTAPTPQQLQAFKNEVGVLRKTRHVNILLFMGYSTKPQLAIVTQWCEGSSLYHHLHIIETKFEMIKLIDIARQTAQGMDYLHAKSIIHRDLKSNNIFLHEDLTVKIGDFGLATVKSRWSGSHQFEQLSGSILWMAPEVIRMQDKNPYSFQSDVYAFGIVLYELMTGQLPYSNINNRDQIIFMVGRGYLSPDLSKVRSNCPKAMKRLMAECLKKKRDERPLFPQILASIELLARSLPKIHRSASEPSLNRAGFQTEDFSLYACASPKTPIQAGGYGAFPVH
T1 sequence (P04049 whole entry): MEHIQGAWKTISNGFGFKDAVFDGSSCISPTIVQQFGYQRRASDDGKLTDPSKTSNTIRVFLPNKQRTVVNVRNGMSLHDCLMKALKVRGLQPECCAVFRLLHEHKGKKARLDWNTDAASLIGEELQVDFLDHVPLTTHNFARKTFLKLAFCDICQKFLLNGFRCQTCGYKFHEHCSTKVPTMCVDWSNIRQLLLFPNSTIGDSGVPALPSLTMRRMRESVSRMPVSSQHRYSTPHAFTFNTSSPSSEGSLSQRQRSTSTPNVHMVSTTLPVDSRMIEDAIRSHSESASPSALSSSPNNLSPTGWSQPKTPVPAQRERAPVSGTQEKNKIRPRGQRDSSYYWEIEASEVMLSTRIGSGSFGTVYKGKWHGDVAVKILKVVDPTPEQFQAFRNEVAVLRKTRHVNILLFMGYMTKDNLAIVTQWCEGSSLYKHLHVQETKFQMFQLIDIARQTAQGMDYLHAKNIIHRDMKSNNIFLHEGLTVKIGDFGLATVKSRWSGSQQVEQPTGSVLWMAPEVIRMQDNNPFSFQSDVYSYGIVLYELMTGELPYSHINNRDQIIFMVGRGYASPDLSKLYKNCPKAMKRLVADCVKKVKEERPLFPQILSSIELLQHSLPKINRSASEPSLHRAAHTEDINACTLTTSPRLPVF
Mast/stem cell growth factor receptor Kit (Homo sapiens), sequence (P10721 whole entry): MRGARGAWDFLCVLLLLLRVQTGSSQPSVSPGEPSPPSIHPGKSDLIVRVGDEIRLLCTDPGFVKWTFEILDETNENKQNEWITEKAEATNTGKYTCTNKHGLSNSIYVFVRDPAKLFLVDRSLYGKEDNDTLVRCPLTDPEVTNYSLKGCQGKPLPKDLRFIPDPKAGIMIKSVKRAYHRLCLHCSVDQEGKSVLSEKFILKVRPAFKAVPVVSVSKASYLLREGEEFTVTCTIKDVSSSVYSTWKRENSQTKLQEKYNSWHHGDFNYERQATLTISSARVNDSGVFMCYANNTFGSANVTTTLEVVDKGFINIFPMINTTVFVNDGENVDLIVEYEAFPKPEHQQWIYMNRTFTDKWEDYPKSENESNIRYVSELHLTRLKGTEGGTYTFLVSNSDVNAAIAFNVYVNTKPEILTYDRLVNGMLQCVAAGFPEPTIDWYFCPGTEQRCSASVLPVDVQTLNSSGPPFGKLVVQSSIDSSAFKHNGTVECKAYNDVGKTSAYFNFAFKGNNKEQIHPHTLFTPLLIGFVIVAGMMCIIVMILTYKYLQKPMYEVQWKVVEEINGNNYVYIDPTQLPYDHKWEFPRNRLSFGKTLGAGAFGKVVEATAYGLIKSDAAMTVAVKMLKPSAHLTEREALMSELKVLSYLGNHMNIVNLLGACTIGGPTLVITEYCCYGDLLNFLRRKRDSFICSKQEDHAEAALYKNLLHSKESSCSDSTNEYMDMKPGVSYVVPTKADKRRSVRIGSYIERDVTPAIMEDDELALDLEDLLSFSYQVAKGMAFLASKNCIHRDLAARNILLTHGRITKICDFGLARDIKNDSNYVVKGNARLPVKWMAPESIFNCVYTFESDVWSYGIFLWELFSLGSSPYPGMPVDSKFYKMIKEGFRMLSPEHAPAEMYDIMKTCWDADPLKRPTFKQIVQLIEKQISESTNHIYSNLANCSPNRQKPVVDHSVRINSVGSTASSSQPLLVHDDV
Epidermal growth factor receptor (Homo sapiens), sequence (P00533 whole entry): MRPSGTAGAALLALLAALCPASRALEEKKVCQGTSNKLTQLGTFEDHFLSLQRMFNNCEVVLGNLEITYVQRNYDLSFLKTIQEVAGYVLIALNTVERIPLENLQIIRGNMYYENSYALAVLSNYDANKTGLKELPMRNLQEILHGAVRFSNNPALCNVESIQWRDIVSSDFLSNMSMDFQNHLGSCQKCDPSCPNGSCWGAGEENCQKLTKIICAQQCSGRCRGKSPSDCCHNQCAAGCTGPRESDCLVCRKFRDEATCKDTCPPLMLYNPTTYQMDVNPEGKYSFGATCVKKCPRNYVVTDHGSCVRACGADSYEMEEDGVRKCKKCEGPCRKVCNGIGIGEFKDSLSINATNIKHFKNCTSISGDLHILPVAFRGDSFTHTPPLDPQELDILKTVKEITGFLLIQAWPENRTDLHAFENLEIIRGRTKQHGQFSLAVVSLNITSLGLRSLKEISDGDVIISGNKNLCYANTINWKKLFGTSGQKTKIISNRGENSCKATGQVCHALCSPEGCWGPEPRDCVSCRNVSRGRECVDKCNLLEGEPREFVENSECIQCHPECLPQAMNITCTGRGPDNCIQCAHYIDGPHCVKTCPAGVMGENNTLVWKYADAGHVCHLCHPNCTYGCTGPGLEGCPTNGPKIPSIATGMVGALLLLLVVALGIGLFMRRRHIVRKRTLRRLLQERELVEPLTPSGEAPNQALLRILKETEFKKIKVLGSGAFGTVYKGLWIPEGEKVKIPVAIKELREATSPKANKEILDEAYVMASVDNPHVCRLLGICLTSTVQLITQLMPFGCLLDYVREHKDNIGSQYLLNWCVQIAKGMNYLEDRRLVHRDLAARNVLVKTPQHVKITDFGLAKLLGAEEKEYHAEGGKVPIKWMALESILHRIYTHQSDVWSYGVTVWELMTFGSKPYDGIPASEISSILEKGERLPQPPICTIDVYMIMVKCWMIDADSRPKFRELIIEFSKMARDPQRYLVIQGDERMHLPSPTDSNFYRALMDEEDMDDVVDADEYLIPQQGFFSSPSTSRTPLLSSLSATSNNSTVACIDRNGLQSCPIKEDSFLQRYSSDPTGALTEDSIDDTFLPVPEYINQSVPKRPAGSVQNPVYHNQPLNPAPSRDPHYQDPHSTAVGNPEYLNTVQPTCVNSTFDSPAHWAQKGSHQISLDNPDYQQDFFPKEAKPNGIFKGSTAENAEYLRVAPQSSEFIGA
Focal adhesion kinase 1 (Homo sapiens), sequence (Q05397 whole entry, looked up): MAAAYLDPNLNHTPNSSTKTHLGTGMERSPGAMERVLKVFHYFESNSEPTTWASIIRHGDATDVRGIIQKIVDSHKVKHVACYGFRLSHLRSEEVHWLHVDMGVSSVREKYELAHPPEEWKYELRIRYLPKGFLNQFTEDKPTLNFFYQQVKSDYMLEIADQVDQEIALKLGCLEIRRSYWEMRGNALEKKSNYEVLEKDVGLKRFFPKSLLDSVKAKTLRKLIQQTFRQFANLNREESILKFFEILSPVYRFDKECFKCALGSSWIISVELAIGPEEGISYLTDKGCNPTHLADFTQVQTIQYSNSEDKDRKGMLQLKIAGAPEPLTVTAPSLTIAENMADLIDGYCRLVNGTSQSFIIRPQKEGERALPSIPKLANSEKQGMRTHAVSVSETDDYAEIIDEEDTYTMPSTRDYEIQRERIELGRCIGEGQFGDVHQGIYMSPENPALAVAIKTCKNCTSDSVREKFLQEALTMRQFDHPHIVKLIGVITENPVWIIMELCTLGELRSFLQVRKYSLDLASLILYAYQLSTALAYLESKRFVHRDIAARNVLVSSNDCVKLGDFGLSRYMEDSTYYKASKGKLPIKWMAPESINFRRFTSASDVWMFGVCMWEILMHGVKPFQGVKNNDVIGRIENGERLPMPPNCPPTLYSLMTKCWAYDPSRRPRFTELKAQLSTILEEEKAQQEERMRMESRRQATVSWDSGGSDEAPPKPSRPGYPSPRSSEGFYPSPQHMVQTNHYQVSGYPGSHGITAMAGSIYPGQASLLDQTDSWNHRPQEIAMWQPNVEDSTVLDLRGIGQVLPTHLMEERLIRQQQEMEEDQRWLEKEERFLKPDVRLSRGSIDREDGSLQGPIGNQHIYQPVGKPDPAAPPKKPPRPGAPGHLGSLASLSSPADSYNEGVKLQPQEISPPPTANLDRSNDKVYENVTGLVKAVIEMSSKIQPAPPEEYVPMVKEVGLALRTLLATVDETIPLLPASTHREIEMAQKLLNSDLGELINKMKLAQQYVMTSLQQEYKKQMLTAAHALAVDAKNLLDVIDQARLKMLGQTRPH
Serine/threonine-protein kinase B-raf (Homo sapiens), P15056 [V600E], sequence (P15056 whole entry V600E): as the sequence (P15056 whole entry) above, with V600E counted along it

COc1ccc(-c2ccc(C(=O)Nc3cccc(C(=O)c4nccn4-c4ccnc(NC[C@H](C)O)n4)c3)o2)cc1
GI50 [1]: 9.39 µM | GI50 [2]: 2.55 µM

CC(=O)N1CCC(C(=O)Nc2cccc(Cc3nccn3-c3ccnc(NC[C@H](C)O)n3)c2)CC1
GI50 [3]: inactive | GI50 [4]: inactive

C[C@H](O)CNc1nccc(-n2ccnc2Cc2cccc(NC(=O)c3cc(N4CCOCC4)cc(C(F)(F)F)c3)c2)n1
GI50 [1]: 6.6 µM | GI50 [2]: 9.7 µM

Cc1cc(C)cc(C(=O)Nc2cccc(Cc3nccn3-c3ccnc(NC[C@H](C)O)n3)c2)c1
GI50 [3]: inactive | GI50 [2]: 16.8 µM

C[C@H](O)CNc1nccc(-n2ccnc2Cc2cccc(NC(=O)Cc3ccc(-c4ccccc4)cc3)c2)n1
GI50 [1]: 11.2 µM | GI50 [2]: 10 µM

C[C@H](O)CNc1nccc(-n2ccnc2C(=O)c2ccc(NC(=O)c3ccc(C(F)(F)F)c(N4CCOCC4)c3)cc2)n1
GI50 [1]: 7.07 µM | GI50 [4]: inactive

CNC(=O)c1cc(Oc2ccc(NC(=O)Nc3ccc(Cl)c(C(F)(F)F)c3)cc2)ccn1 [SORAFENIB]
GI50 [1]: 3.4 µM | GI50 [2]: 2.74 µM

C[C@H](O)CNc1nccc(-n2ccnc2Cc2cccc(NC(=O)C(c3ccc(Cl)cc3)c3ccc(Cl)cc3)c2)n1
GI50 [1]: 3.97 µM | GI50 [2]: 3.24 µM

C[C@H](O)CNc1nccc(-n2ccnc2C(=O)c2ccc(NC(=O)Nc3ccc(Cl)c(C(F)(F)F)c3)cc2)n1
GI50 [1]: > 30 µM | GI50 [2]: 7.45 µM

C[C@H](O)CNc1nccc(-n2ccnc2C(=O)c2ccc(NC(=O)c3ccc(Cl)cc3)cc2)n1
GI50 [1]: > 30 µM | GI50 [2]: > 30 µM

C[C@H](O)CNc1nccc(-n2ccnc2C(=O)c2cccc(NC(=O)Nc3ccc(Cl)cc3)c2)n1
GI50 [1]: > 30 µM | GI50 [2]: > 30 µM

C[C@H](O)CNc1nccc(-n2ccnc2Cc2cccc(NC(=O)c3ccc4ccccc4n3)c2)n1
GI50 [3]: inactive | GI50 [2]: 23.8 µM

C[C@H](O)CNc1nccc(-n2ccnc2C(=O)c2cccc(NC(=O)c3cccc(C(F)(F)F)c3)c2)n1
GI50 [1]: > 30 µM | GI50 [2]: 3.78 µM

C[C@H](O)CNc1nccc(-n2ccnc2Cc2cccc(NC(=O)Nc3ccc(Cl)c(C(F)(F)F)c3)c2)n1
inhibition [5]: 0% | inhibition [6]: 63.8% | inhibition [7]: 8.1% | inhibition [8]: 0% | pIC50 [9]: 7.42 | inhibition [10]: 0% | inhibition [11]: 0% | inhibition [12]: 96.1% | inhibition [13]: 0% | inhibition [14]: 98.7% | inhibition [15]: 99.9% | inhibition [16]: 94.3% | inhibition [17]: 5.8% | inhibition [18]: 0% | inhibition [19]: 68.4% | inhibition [20]: 2.1% | pIC50 [21]: 8.06 | inhibition [22]: 17.6% | inhibition [23]: 0% | inhibition [24]: 1.2% | GI50 [1]: 1.82 µM | GI50 [2]: 2.73 µM | inhibition [25]: 12.9% | inhibition [26]: 0% | inhibition [27]: 17.6% | inhibition [28]: 34.5% | inhibition [29]: 33.6% | inhibition [30]: 4.9% | inhibition [31]: 34.8% | inhibition [32]: 0% | inhibition [33]: 0.42% | inhibition [34]: 0% | inhibition [35]: 0.73% | inhibition [36]: 9.9% | pIC50 [37]: 6.24 | pIC50 [38]: 6.73 | inhibition [39]: 3.5% | inhibition [40]: 6.9%

C[C@H](O)CNc1nccc(-n2ccnc2Cc2cccc(NC(=O)c3ccncc3)c2)n1
GI50 [1]: 8.92 µM | GI50 [4]: inactive

C[C@H](O)CNc1nccc(-n2ccnc2Cc2cccc(NC(=O)Nc3ccc(Cl)c(Cl)c3)c2)n1
GI50 [1]: 19.2 µM | GI50 [2]: 1.73 µM

Cc1c(C)c2c(c(C)c1O)CC[C@](C)(C(=O)Nc1cccc(Cc3nccn3-c3ccnc(NC[C@H](C)O)n3)c1)O2
GI50 [3]: inactive | GI50 [2]: 23.6 µM

C[C@H](O)CNc1nccc(-n2ccnc2Cc2cccc(NC(=O)c3cnn(-c4ccccc4)c3C(F)(F)F)c2)n1
GI50 [1]: 6.39 µM | GI50 [2]: 25.8 µM

C[C@H](O)CNc1nccc(-n2ccnc2Cc2cccc(NC(=O)Cc3c[nH]c4ccccc34)c2)n1
GI50 [1]: > 30 µM | GI50 [2]: > 30 µM

C[C@H](O)CNc1nccc(-n2ccnc2C(=O)c2cccc(NC(=O)c3cc(N4CCOCC4)cc(C(F)(F)F)c3)c2)n1
GI50 [3]: inactive | GI50 [2]: 4.9 µM

C[C@H](O)CNc1nccc(-n2ccnc2Cc2cccc(NC(=O)c3ccccc3F)c2)n1
GI50 [1]: 7.45 µM | GI50 [2]: > 30 µM

C[C@H](O)CNc1nccc(-n2ccnc2Cc2cccc(NC(=O)c3ccc(N4CCOCC4)c(C(F)(F)F)c3)c2)n1
GI50 [3]: inactive | GI50 [4]: inactive

C[C@H](O)CNc1nccc(-n2ccnc2Cc2cccc(NC(=O)c3cnccn3)c2)n1
GI50 [3]: inactive | GI50 [2]: > 30 µM

C[C@H](O)CNc1nccc(-n2ccnc2C(=O)c2ccc(NC(=O)Nc3ccc(Cl)c(Cl)c3)cc2)n1
GI50 [1]: > 30 µM | GI50 [2]: 11.6 µM

C[C@H](O)CNc1nccc(-n2ccnc2C(=O)c2cccc(NC(=O)c3cc(N4CCN(C)CC4)cc(C(F)(F)F)c3)c2)n1
GI50 [1]: 27.8 µM | GI50 [4]: inactive

C[C@H](O)CNc1nccc(-n2ccnc2C(=O)c2cccc(NC(=O)c3ccc(Cl)cc3)c2)n1
GI50 [1]: > 30 µM | GI50 [2]: > 30 µM

CCN1CCN(Cc2ccc(NC(=O)Nc3cccc(Cc4nccn4-c4ccnc(NC[C@H](C)O)n4)c3)cc2C(F)(F)F)CC1
GI50 [1]: > 30 µM | GI50 [2]: > 30 µM

C[C@H](O)CNc1nccc(-n2ccnc2Cc2cccc(NC(=O)c3ccc(Cl)c(C(F)(F)F)c3)c2)n1
GI50 [1]: 3.3 µM | GI50 [2]: 6.83 µM

C[C@H](O)CNc1nccc(-n2ccnc2Cc2cccc(NC(=O)c3ccccc3-c3ccccc3)c2)n1
GI50 [3]: inactive | GI50 [4]: inactive

C[C@H](O)CNc1nccc(-n2ccnc2Cc2cccc(NC(=O)c3cc(N4CCN(C)CC4)cc(C(F)(F)F)c3)c2)n1
GI50 [1]: 12.3 µM | GI50 [2]: > 30 µM

C[C@H](O)CNc1nccc(-n2ccnc2Cc2cccc(NC(=O)C3Cc4ccccc4N3)c2)n1 (stereo partly specified)
GI50 [1]: > 30 µM | GI50 [2]: 18.5 µM

C[C@H](O)CNc1nccc(-n2ccnc2Cc2cccc(NC(=O)Nc3cccc(Cl)c3)c2)n1
GI50 [1]: 26.2 µM | GI50 [2]: 15.3 µM

C[C@H](O)CNc1nccc(-n2ccnc2C(=O)c2cccc(NC(=O)c3cccc(Cl)c3)c2)n1
GI50 [1]: > 30 µM | GI50 [2]: > 30 µM

C[C@H](O)CNc1nccc(-n2ccnc2Cc2cccc(NC(=O)c3ccc(Cl)cc3)c2)n1
GI50 [1]: 10.2 µM | GI50 [2]: > 30 µM

C[C@H](O)CNc1nccc(-n2ccnc2C(=O)c2ccc(NC(=O)c3ccc(Cl)c(C(F)(F)F)c3)cc2)n1
GI50 [1]: > 30 µM | GI50 [2]: > 30 µM

C[C@H](O)CNc1nccc(-n2ccnc2Cc2cccc(NC(=O)c3ccccc3Sc3ccccc3C#N)c2)n1
GI50 [3]: inactive | GI50 [2]: 10 µM

C[C@H](O)CNc1nccc(-n2ccnc2C(=O)c2ccc(NC(=O)c3cccc(Cl)c3)cc2)n1
GI50 [1]: > 30 µM | GI50 [2]: > 30 µM

C[C@H](O)CNc1nccc(-n2ccnc2Cc2cccc(NC(=O)c3ccc(-c4ccccc4)cc3)c2)n1
GI50 [1]: 0.6 µM | GI50 [2]: 1.68 µM

C[C@H](O)CNc1nccc(-n2ccnc2C(=O)c2ccc(NC(=O)c3cc(N4CCN(C)CC4)cc(C(F)(F)F)c3)cc2)n1
GI50 [1]: 5.92 µM | GI50 [4]: inactive

C[C@H](O)CNc1nccc(-n2ccnc2C(=O)c2cccc(NC(=O)Nc3ccc(Cl)c(Cl)c3)c2)n1
GI50 [1]: > 30 µM | GI50 [2]: 14.7 µM
